Assay [1] addresses Aldo-keto reductase family 1 member B1 (Rattus norvegicus, UniProt P07943). As to the kind of experiment: biochemical. Type of assay: tissue-based, Lens of camera-type eye.
The target of a further assay is T1, Calcitonin receptor (Homo sapiens, UniProt P30988). Also: in other assays of this panel Not Active means under 50% inhibition at 10 µM.
T1 sequence (P30988 whole entry): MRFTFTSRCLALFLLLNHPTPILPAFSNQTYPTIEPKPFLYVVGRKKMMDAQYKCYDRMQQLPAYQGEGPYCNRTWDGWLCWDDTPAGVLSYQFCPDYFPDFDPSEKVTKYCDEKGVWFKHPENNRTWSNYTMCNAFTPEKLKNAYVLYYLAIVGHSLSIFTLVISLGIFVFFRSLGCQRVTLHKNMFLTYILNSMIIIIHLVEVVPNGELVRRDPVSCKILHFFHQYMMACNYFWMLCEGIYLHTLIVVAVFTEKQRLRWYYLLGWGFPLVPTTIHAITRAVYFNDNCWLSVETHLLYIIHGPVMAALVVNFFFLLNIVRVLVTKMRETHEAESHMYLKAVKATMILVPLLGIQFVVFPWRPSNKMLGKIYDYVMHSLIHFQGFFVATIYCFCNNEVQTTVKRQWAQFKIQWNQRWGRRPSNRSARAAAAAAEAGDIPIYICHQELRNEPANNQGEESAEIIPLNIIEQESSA
It counts as cell membranes, Membrane. Conditions: t47d.

The nature of assay [2]: DRUGMATRIX: Calcium Channel Type L, Phenylalkylamine radioligand binding (ligand: [3H] (-)-Desmethoxyverapamil (D-888)). It counts as cell membranes, Rattus norvegicus, Wistar, Brain, Membrane. Conditions: Not Active = under 50% inhibition at 10 µM.
The next assay deals with T2, D(4) dopamine receptor (Homo sapiens, UniProt P21917).
T2 sequence (P21917 whole entry): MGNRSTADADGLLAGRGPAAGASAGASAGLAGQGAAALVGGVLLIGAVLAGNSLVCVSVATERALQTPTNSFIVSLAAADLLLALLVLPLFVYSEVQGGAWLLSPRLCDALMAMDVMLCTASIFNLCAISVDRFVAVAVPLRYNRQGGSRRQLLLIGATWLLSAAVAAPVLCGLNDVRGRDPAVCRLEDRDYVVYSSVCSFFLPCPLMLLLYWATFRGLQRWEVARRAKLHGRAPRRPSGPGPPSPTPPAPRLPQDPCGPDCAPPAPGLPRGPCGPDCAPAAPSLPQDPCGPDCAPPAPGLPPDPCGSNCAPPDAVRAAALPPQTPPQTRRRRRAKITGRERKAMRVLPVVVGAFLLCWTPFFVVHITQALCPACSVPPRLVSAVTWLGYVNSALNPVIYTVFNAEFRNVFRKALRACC
As to the kind of experiment: DRUGMATRIX: Dopamine D4.2 radioligand binding (ligand: [3H] Spiperone). It counts as cell membranes, CHO-K1, Membrane. Conditions: cho-k1; Not Active = under 50% inhibition at 10 µM.

A further assay has as its target T3, Endothelin-1 receptor (Homo sapiens, UniProt P25101). Also: in other assays of this panel Not Active means under 50% inhibition at 10 µM.
T3 sequence (P25101 whole entry): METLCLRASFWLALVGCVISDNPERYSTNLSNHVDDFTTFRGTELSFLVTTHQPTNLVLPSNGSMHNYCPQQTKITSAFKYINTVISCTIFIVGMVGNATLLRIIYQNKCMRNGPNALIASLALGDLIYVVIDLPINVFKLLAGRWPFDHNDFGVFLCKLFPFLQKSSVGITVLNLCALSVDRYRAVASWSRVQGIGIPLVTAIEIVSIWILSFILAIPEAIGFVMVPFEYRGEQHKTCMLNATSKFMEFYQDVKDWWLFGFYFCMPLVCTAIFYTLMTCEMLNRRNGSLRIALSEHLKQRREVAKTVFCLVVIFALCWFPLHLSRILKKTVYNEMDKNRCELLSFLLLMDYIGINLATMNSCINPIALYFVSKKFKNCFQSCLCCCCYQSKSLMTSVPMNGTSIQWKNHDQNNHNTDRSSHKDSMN
It counts as cell membranes, CHO-K1, Membrane. The conditions noted are these: cho-k1.

Assay [3] is described as follows: DRUGMATRIX: GABAA, Muscimol, Central radioligand binding (ligand: [3H] Muscimol). Type of assay: cell membranes, Rattus norvegicus, Wistar, Brain, Membrane. Conditions: Not Active = under 50% inhibition at 10 µM.
Assay [4] can be described thus: DRUGMATRIX: Glutamate, NMDA, Agonism radioligand binding (ligand: [3H] CGP-39653). It counts as cell membranes, Rattus norvegicus, Wistar, Cerebral cortex, Membrane. The conditions noted are these: Not Active = under 50% inhibition at 10 µM.
Assay [5] addresses T4, Angiotensin-converting enzyme (Oryctolagus cuniculus, UniProt P12822).
T4 sequence (P12822 whole entry): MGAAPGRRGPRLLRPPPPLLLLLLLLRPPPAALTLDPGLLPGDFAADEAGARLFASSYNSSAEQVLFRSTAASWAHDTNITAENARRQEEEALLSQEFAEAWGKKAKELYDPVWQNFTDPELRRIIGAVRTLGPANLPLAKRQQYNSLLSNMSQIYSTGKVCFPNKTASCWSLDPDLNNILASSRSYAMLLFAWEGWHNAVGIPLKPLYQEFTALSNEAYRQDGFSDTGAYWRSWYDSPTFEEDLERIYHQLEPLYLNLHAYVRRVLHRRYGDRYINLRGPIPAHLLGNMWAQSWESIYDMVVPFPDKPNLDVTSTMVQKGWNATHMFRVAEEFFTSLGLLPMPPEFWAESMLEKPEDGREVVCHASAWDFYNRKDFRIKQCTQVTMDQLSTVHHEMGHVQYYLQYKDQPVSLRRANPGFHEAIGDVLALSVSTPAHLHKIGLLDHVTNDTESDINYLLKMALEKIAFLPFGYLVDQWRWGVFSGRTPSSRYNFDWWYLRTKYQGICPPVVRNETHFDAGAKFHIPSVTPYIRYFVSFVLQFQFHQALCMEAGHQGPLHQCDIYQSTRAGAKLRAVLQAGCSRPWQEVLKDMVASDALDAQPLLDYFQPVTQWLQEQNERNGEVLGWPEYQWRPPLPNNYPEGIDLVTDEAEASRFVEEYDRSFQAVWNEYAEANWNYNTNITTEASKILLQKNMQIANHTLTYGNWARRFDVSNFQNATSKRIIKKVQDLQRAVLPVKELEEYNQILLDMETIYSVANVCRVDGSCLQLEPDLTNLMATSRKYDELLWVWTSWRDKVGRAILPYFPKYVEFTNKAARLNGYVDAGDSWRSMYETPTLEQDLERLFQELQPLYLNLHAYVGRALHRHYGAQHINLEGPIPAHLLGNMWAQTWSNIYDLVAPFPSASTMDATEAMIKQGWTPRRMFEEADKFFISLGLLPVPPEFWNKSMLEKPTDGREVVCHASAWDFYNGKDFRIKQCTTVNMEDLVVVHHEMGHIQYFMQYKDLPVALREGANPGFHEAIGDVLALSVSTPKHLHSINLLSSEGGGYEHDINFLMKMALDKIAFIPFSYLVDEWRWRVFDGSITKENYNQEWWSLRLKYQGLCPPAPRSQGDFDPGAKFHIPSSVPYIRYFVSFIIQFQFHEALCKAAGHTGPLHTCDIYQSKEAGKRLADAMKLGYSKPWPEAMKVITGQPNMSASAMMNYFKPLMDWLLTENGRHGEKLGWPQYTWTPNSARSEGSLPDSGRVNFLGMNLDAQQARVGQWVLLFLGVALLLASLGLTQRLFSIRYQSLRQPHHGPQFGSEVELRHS
It counts as tissue-based, Lung.

From ChEMBL document CHEMBL1909046, “DrugMatrix in vitro pharmacology data” come the findings set out here.

Each structure is given as a SMILES string. pIC50: −log10 of the molar value.

With `CS(=O)(=O)OCCCCOS(C)(=O)=O` [BUSULFAN], the IC50 result (in assay [1]; on Calcitonin receptor; in assay [2]; at D(4) dopamine receptor; against Endothelin-1 receptor; in assay [3]) was “Not Active” throughout. Further, the IC50 result in assay [4] and in assay [5] was “Not Active” in each case. The Ki result in assay [2], in assay [3] and in assay [4] was “Not Active” throughout.
By pIC50 is commonly meant the IC50 on a negative log10 scale, so that one unit is a factor of ten. For the compound `O=C(/C=C/c1ccc(O)c(O)c1)OCCc1ccccc1` [CAFFEIC ACID PHENETHYL ESTER], the pIC50 in assay [1] (read-out: IC50) was 5.85. In addition, the IC50 entry (at Calcitonin receptor; in assay [2]; on D(4) dopamine receptor; against Endothelin-1 receptor; in assay [3]; in assay [4]) was “Not Active” throughout. Further, in assay [5], the IC50 result was “Not Active”. For the same compound, the Ki entry in assay [2], in assay [3] and in assay [4] was “Not Active” each time.
For the compound `COc1cc(CNC(=O)CCCC/C=C/C(C)C)ccc1O` [CAPSAICIN], the IC50 entry (in assay [1]; on Calcitonin receptor; in assay [2]; on D(4) dopamine receptor; at Endothelin-1 receptor; in assay [3]) was “Not Active” each time. The IC50 entry in assay [4] and in assay [5] was “Not Active” throughout. In addition, the Ki entry in assay [2], in assay [3] and in assay [4] was “Not Active” throughout.
Consider `NC(=O)N1c2ccccc2C=Cc2ccccc21` [CARBAMAZEPINE], for which the IC50 result (in assay [1]; at Calcitonin receptor; in assay [2]; on D(4) dopamine receptor; at Endothelin-1 receptor; in assay [3]) was “Not Active” each time. Also, the IC50 entry in assay [4] and in assay [5] was “Not Active” in each case. Moreover, the Ki result in assay [2], in assay [3] and in assay [4] was “Not Active” each time.
As to `CCOC(=O)n1ccn(C)c1=S` [CARBIMAZOLE], the IC50 entry (in assay [1]; on Calcitonin receptor; in assay [2]; at D(4) dopamine receptor; on Endothelin-1 receptor; in assay [3]) was “Not Active” in each case. Also, the IC50 entry in assay [4] and in assay [5] was “Not Active” throughout. Further, the Ki entry in assay [2], in assay [3] and in assay [4] was “Not Active” in each case.
As for `Oc1ccccc1O` [CATECHOL], the IC50 result (in assay [1]; on Calcitonin receptor; in assay [2]; at D(4) dopamine receptor; against Endothelin-1 receptor; in assay [3]) was “Not Active” throughout. The IC50 result in assay [4] and in assay [5] was “Not Active” each time. Moreover, the Ki entry in assay [2], in assay [3] and in assay [4] was “Not Active” throughout.
Regarding `CO[C@@]1(NC(=O)CSCC#N)C(=O)N2C(C(=O)O)=C(CSc3nnnn3C)CS[C@@H]21` [CEFMETAZOLE], the IC50 entry (in assay [1]; at Calcitonin receptor; in assay [2]; at D(4) dopamine receptor; against Endothelin-1 receptor; in assay [3]) was “Not Active” throughout. The IC50 entry in assay [4] and in assay [5] was “Not Active” throughout. Also, the Ki result in assay [2], in assay [3] and in assay [4] was “Not Active” throughout.
Turning to `CN(C(=O)CCCOc1ccc2[nH]c(=O)ccc2c1)C1CCCCC1` [CILOSTAMIDE], the IC50 result (in assay [1]; at Calcitonin receptor; in assay [2]; on D(4) dopamine receptor; against Endothelin-1 receptor; in assay [3]) was “Not Active” throughout. Further, the IC50 entry in assay [4] and in assay [5] was “Not Active” in each case. Besides, the Ki entry in assay [2], in assay [3] and in assay [4] was “Not Active” in each case.
For `CC(C)(Oc1ccc(C2CC2(Cl)Cl)cc1)C(=O)O` (stereo unspecified) [CIPROFIBRATE], the IC50 result (in assay [1]; on Calcitonin receptor; in assay [2]; at D(4) dopamine receptor; at Endothelin-1 receptor; in assay [3]) was “Not Active” in each case. The IC50 entry in assay [4] and in assay [5] was “Not Active” in each case. Besides, the Ki result in assay [2], in assay [3] and in assay [4] was “Not Active” each time.
For the compound `Nc1nc(Cl)nc2c1ncn2[C@H]1C[C@H](O)[C@@H](CO)O1` [CLADRIBINE], the IC50 result (in assay [1]; on Calcitonin receptor; in assay [2]; at D(4) dopamine receptor; against Endothelin-1 receptor; in assay [3]) was “Not Active” throughout. The IC50 result in assay [4] and in assay [5] was “Not Active” in each case. In addition, the Ki result in assay [2], in assay [3] and in assay [4] was “Not Active” throughout.
On to `CC[C@H]1OC(=O)[C@H](C)[C@@H](O[C@H]2C[C@@](C)(OC)[C@@H](O)[C@H](C)O2)[C@H](C)[C@@H](O[C@@H]2O[C@H](C)C[C@H](N(C)C)[C@H]2O)[C@](C)(OC)C[C@@H](C)C(=O)[C@H](C)[C@@H](O)[C@]1(C)O` [CLARITHROMYCIN], for which the IC50 entry (in assay [1]; on Calcitonin receptor; in assay [2]; on D(4) dopamine receptor; against Endothelin-1 receptor; in assay [3]) was “Not Active” throughout. Further, the IC50 result in assay [4] and in assay [5] was “Not Active” throughout. Further, the Ki entry in assay [2], in assay [3] and in assay [4] was “Not Active” in each case.
